The values below come from BindingDB's records for doi:10.1016/j.bmcl.2014.09.005 (Rhône-Poulenc Rorer, 2014).

A short description of the test: Antagonist activity at CRTh2 receptor in human eosinophil assessed as inhibition of PGD2-induced cell shape change.

Structures are written as SMILES.

Consider `CCN(Cc1cc(C(F)(F)F)ccc1-c1cn(CC(=O)O)c2ccccc12)C(=O)C1CC1`, for which the IC50 – broadly, the concentration that inhibits the measured activity by half – worked out at 63 nM.
With `CCN(Cc1cc(C(F)(F)F)ccc1-c1cc(CC(=O)O)c2ccncn12)C(=O)C1CC1`, the IC50 turned out to be 19 nM.
The figure for `CCN(Cc1cc(C(F)(F)F)ccc1-c1nc(CC(=O)O)c2ccccn12)C(=O)C1CC1` is 94 nM.
The figure for `CCN(Cc1cc(C(F)(F)F)ccc1-n1cc(CC(=O)O)c2cccnc21)C(=O)C1CC1` is 20 nM; for `CCN(Cc1cc(C(F)(F)F)ccc1-c1cc(CC(=O)O)cc2cnn(C)c12)C(=O)C1CC1` it is 58 nM.
For the molecule `CCN(Cc1cc(C(F)(F)F)ccc1-c1cn(CC(=O)O)c2ccncc12)C(=O)C1CC1`, the IC50 was determined as 8 nM.
The figure for `CCN(Cc1cc(C(F)(F)F)ccc1-c1cc(CC(=O)O)cc2cn(C)nc12)C(=O)C1CC1` is 43 nM; for `CCN(Cc1cc(C(F)(F)F)ccc1-c1cn(CC(=O)O)c2cccnc12)C(=O)C1CC1` it is 14 nM.
Then `CCN(Cc1cc(C(F)(F)F)ccc1-c1cc(CC(=O)O)ccc1OC)C(=O)C1CC1`, with 13 nM.
